According to ChEMBL document CHEMBL6078711, “Design, synthesis, and biological evaluation of steroidal indole derivatives as membrane-targeting antibacterial candidates” (Eur J Med Chem, 2025):
Converted amounts (≈) assume the structure as drawn. The source made the active and inactive calls. The calls are words filed in the database; no cut-off is given here.

How the values were obtained:
[1] = system: Staphylococcus aureus; test: Antibacterial activity against Staphylococcus aureus CGMCC1.8721 assessed as reduction in bacterial growth; assay type: functional
[2] = system: Staphylococcus aureus; test: Antibacterial activity against methicillin-resistant Staphylococcus aureus CGMCC 1.12409 assessed as reduction in bacterial growth; assay type: functional
[3] = system: Staphylococcus aureus; test: Antibacterial activity against methicillin-resistant Staphylococcus aureus ATCC 33591 assessed as reduction in bacterial growth; assay type: functional
[4] = system: Staphylococcus aureus; test: Bactericidal activity against methicillin-resistant Staphylococcus aureus ATCC 43300 assessed as reduction in bacterial growth; assay type: functional
[5] = system: Staphylococcus aureus; test: Bactericidal activity against methicillin-resistant Staphylococcus aureus CGMCC 1.12409 assessed as reduction in bacterial growth; assay type: functional
[6] = system: A549; test: Cytotoxicity against human A549 cells upto 20 uM; assay type: functional, cell-based
[7] = system: HEK-293T; test: Cytotoxicity against HEK293T cells upto 20 uM; assay type: toxicity, cell-based; details: human
[8] = system: HepG2; test: Cytotoxicity against human HepG2 cells assessed as cell viability upto 40 uM relative to control; assay type: functional; details: up to 40 µM
[9] = Cytotoxicity against human HEK293T cells assessed as cell viability upto 40 uM relative to control; assay type: toxicity, cell-based, HEK-293T; details: read-out: Activity
[10] = Hemolytic activity against rabbit Red blood cell assessed as hemolysis; assay type: toxicity, cell-based, Oryctolagus cuniculus, Erythrocyte; details: red blood cells
[11] = system: Staphylococcus aureus; test: Antibacterial activity against Staphylococcus aureus CGMCC1.8721 assessed as reduction in bacterial growth at 4 to 8 times MIC measured after 24 hrs by time kill assay; assay type: functional, organism-based
[12] = system: Staphylococcus aureus; test: Drug resistance, ratio of MIC for Staphylococcus aureus CGMCC1.8721 after 30 days exposure to MIC for Staphylococcus aureus CGMCC1.8721 during first exposure; assay type: functional
[13] = system: Staphylococcus aureus; test: Antibacterial activity against Staphylococcus aureus CGMCC1.8721 assessed as reduction in bacterial growth in presence of Na+; assay type: functional
[14] = system: Staphylococcus aureus; test: Antibacterial activity against Staphylococcus aureus CGMCC1.8721 assessed as reduction in bacterial growth in presence of Mg2+; assay type: functional
[15] = system: Staphylococcus aureus; test: Antibacterial activity against Staphylococcus aureus CGMCC1.8721 assessed as reduction in bacterial growth in presence of Fe3+; assay type: functional
[16] = system: Staphylococcus aureus; test: Antibacterial activity against methicillin-resistant Staphylococcus aureus ATCC 43300 assessed as reduction in bacterial growth in presence of Na+; assay type: functional
[17] = system: Staphylococcus aureus; test: Antibacterial activity against methicillin-resistant Staphylococcus aureus ATCC 43300 assessed as reduction in bacterial growth in presence of K+; assay type: functional
[18] = system: Staphylococcus aureus; test: Antibacterial activity against methicillin-resistant Staphylococcus aureus ATCC 43300 assessed as reduction in bacterial growth in presence of Zn2+; assay type: functional
[19] = system: Staphylococcus aureus; test: Antibacterial activity against methicillin-resistant Staphylococcus aureus ATCC 43300 assessed as reduction in bacterial growth in presence of Fe2+; assay type: functional
[20] = system: Staphylococcus aureus; test: Antibacterial activity against methicillin-resistant Staphylococcus aureus ATCC 43300 assessed as reduction in bacterial growth in presence of Fe3+; assay type: functional
[21] = system: Staphylococcus aureus; test: Antibacterial activity against methicillin-resistant Staphylococcus aureus CGMCC 1.12409 assessed as reduction in bacterial growth in presence of Na+; assay type: functional
[22] = system: Staphylococcus aureus; test: Antibacterial activity against methicillin-resistant Staphylococcus aureus CGMCC 1.12409 assessed as reduction in bacterial growth in presence of K+; assay type: functional
[23] = system: Staphylococcus aureus; test: Antibacterial activity against methicillin-resistant Staphylococcus aureus CGMCC 1.12409 assessed as reduction in bacterial growth in presence of Ca2+; assay type: functional
[24] = system: Staphylococcus aureus; test: Antibacterial activity against methicillin-resistant Staphylococcus aureus CGMCC 1.12409 assessed as reduction in bacterial growth in presence of Mg2+; assay type: functional
[25] = system: Staphylococcus aureus; test: Antibacterial activity against methicillin-resistant Staphylococcus aureus CGMCC 1.12409 assessed as reduction in bacterial growth in presence of Fe2+; assay type: functional
[26] = system: Staphylococcus aureus; test: Antibacterial activity against methicillin-resistant Staphylococcus aureus CGMCC 1.12409 assessed as reduction in bacterial growth in presence of Fe3+; assay type: functional
[27] = system: Staphylococcus aureus; test: Antibacterial activity against methicillin-resistant Staphylococcus aureus ATCC 33591 assessed as reduction in bacterial growth in presence of K+; assay type: functional
[28] = system: Staphylococcus aureus; test: Antibacterial activity against methicillin-resistant Staphylococcus aureus ATCC 33591 assessed as reduction in bacterial growth in presence of Ca2+; assay type: functional
[29] = system: Staphylococcus aureus; test: Antibacterial activity against methicillin-resistant Staphylococcus aureus ATCC 33591 assessed as reduction in bacterial growth in presence of Mg2+; assay type: functional
[30] = system: Staphylococcus aureus; test: Antibacterial activity against methicillin-resistant Staphylococcus aureus ATCC 33591 assessed as reduction in bacterial growth in presence of Zn2+; assay type: functional
[31] = system: Staphylococcus aureus; test: Antibiofilm activity against Staphylococcus aureus CGMCC1.8721 assessed as inhibition of biofilm formation at 1 times MIC; assay type: functional
[32] = system: Cell membrane; test: Induction of inner membrane permeabilization in Staphylococcus aureus CGMCC1.8721 assessed as increase in fluorescence intensity by PI staining based fluorescence analysis; assay type: subcellular
[33] = system: Cell membrane; test: Induction of membrane depolarization in Staphylococcus aureus CGMCC1.8721 assessed as increase in fluorescence intensity measured upto 30 mins by DiSC35 dye-based fluorescence assay; assay type: subcellular; details: dose 2-8 µg/ml
[34] = system: Cell membrane; test: Disruption of cell membrane integrity in Staphylococcus aureus CGMCC1.8721 assessed as increase in protein leakage at 4 times MIC; assay type: subcellular
[35] = system: Staphylococcus aureus; test: Antibacterial activity against Staphylococcus aureus CGMCC1.8721 assessed as induction of ROS production at 1 to 4 times MIC by DCFH-DA staining based flow cytometry analysis; assay type: functional, organism-based
[36] = system: Staphylococcus aureus; test: Antibacterial activity against Staphylococcus aureus CGMCC1.8721 assessed as reduction in bacterial growth in presence of phosphatidylglycerol; assay type: functional
[37] = system: Staphylococcus aureus; test: Antibacterial activity against Staphylococcus aureus CGMCC1.8721 assessed as reduction in bacterial growth in presence of phosphatidylethanolamine; assay type: functional, organism-based
[38] = system: Staphylococcus aureus; test: Antibacterial activity against Staphylococcus aureus CGMCC1.8721 assessed as reduction in bacterial growth in presence of lipoteichoic acid; assay type: functional, organism-based
[39] = system: Cell membrane; test: Disruption of cell membrane integrity in Staphylococcus aureus CGMCC1.8721 assessed as increase in red fluorescence at 4 times MIC by SYTO 9/PI staining based confocal microscopic analysis; assay type: subcellular
[40] = system: Cell membrane; test: Disruption of cell membrane integrity in Staphylococcus aureus CGMCC1.8721 assessed as appearance of uneven cell surface at 1 to 4 times MIC by scanning electron microscopic analysis; assay type: subcellular
[41] = system: Cell membrane; test: Disruption of cell membrane integrity in Staphylococcus aureus CGMCC1.8721 assessed as appearance of ruptured cell surface at 1 to 4 times MIC by scanning electron microscopic analysis; assay type: subcellular
[42] = system: Staphylococcus aureus; test: Antibacterial activity against Methicillin-resistant Staphylococcus aureus CGMCC1.8721 infected in mouse skin infection model assessed as reduction in bacterial clones at 5 to 10 mg/kg, sc; assay type: functional, organism-based; details: dose 5-10 mg/kg
[43] = system: Staphylococcus aureus; test: Antibacterial activity against Methicillin-resistant Staphylococcus aureus CGMCC1.8721 infected in mouse skin infection model assessed as reduction in bacterial load at 5 mg/kg, sc; assay type: functional; set-up: scale not given: the % may be the effect or the level left
[44] = system: Staphylococcus aureus; test: Antibacterial activity against Methicillin-resistant Staphylococcus aureus CGMCC1.8721 infected in mouse skin infection model assessed as reduction in bacterial load at 10 mg/kg, sc; assay type: functional; set-up: scale not given: the % may be the effect or the level left

SMILES: CCNCc1ccc2[nH]cc(C[C@@H](C)[C@H]3CC[C@H]4[C@@H]5CC[C@@H]6C[C@H](O)CC[C@]6(C)[C@H]5CC[C@]34C)c2c1
- MIC [1]: 1 µg/mL (≈ 2.04 µM)
- MIC [2]: 2 µg/mL (≈ 4.08 µM)
- MIC [3]: 2 µg/mL (≈ 4.08 µM)
- MBC [4]: 2 µg/mL (≈ 4.08 µM)
- MBC [5]: 4 µg/mL (≈ 8.15 µM)
- Activity [6]: Active
- Activity [7]: Non-toxic
- Activity [8]: >70%
- viability at up to 40 µM [9]: > 70%
- HC50 [10]: > 128 µg/mL
- Activity [11]: Active
- Ratio [12]: 64
- MIC [13]: 1 µg/mL
- MIC [14]: 1 µg/mL
- MIC [15]: 1 µg/mL
- MIC [16]: 1 µg/mL
- MIC [17]: 1 µg/mL
- MIC [18]: 1 µg/mL
- MIC [19]: 1 µg/mL
- MIC [20]: 1 µg/mL
- MIC [21]: 2 µg/mL
- MIC [22]: 2 µg/mL
- MIC [23]: 2 µg/mL
- MIC [24]: 2 µg/mL
- MIC [25]: 2 µg/mL
- MIC [26]: 2 µg/mL
- MIC [27]: 2 µg/mL
- MIC [28]: 2 µg/mL
- MIC [29]: 2 µg/mL
- MIC [30]: 2 µg/mL
- inhibition (INH) [31]: 64.1%
- Activity [32]: Dose-dependent-effect
- Activity [33]: Dose-dependent-effect
- Activity [34]: Active
- Activity [35]: Active
- MIC [36]: 32 µg/mL
- Activity [37]: inactive
- Activity [38]: inactive
- Activity [39]: Active
- Activity [40]: Active
- Activity [41]: Active
- AC30 [42]: Active
- Activity [43]: 67%
- Activity [44]: 76%
